Measured values as given in ChEMBL document CHEMBL4507264, “Data for DCP probe BAY-7598” (2021).
Calls of active or inactive are those of the source. The rule behind the calls is not given here.

Columns and labels:
Rattus norvegicus = species: Rattus norvegicus; test: Testosterone Eurofins-Panlabs radioligand binding assay; parameters: ligand concentration 1.5 nM; conditions: Compound concentration 10.0 uM
[1] = target: L-type calcium channel, benzothiazepine site (Cav1.2 alpha-1C) (Homo sapiens, UniProt Q13936); test: Inhibition of Calcium Channel L-Type, Benzothiazepine at 10 µM in the Eurofins-Panlabs radioligand binding assay (Eurofins_assay_214510); parameters: ligand concentration 2 nM, non-specific ligand with concentration 10 µM Diltiazem, incubation time 3h, incubation temperature 4 °C; conditions: male, Wistar, rat, rat whole brain preparation, probe [3H] Diltiazem; compound concentration 10 uM; target entry is the homologue from another species
[2] = target: Voltage-dependent N-type calcium channel subunit alpha-1B (Homo sapiens) (UniProt Q00975); test: Inhibition of Calcium Channel N-Type at 10 µM in the Eurofins-Panlabs radioligand binding assay (Eurofins_assay_216000); conditions: Rattus norvegicus; Compound concentration 10.0 uM
[3] = target: T1, D(4) dopamine receptor (Homo sapiens) (UniProt P21917); test: Inhibition of Dopamine D4.2 at 10 µM in the Eurofins-Panlabs radioligand binding assay (Eurofins_assay_219900); parameters: ligand concentration 0.5 nM; conditions: Compound concentration 10.0 uM
T1 sequence (whole entry): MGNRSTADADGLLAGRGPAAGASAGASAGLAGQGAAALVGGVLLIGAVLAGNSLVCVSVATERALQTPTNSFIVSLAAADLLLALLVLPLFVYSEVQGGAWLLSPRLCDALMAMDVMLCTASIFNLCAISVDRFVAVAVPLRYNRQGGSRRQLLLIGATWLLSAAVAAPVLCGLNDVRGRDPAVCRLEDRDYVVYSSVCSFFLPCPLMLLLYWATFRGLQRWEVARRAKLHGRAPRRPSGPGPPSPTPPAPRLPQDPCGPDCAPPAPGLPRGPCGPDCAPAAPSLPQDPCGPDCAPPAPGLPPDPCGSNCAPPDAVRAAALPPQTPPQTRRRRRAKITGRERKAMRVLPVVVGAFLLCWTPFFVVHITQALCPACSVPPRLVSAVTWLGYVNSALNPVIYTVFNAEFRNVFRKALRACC

[4] = target: Epidermal growth factor receptor (Homo sapiens) (UniProt P00533); test: Inhibition of Epidermal Growth Factor (EGF) at 10 µM in the Eurofins-Panlabs radioligand binding assay (Eurofins_assay_225510); conditions: Compound concentration 10.0 uM
[5] = target: T2, GABA-A receptor; anion channel (Rattus norvegicus) (UniProt O09028+P15431+P18506+P18508+P19969+P20236+P23574+P23576+P28471+P28473+P30191+P62813+P63079+P63138+Q91ZM7+Q9ES14); test: Inhibition of GABAA, Muscimol, Central at 10 µM in the Eurofins-Panlabs radioligand binding assay (Eurofins_assay_226500); type: protein-complex assay; conditions: Compound concentration 10.0 uM
[6] = target: Glutamate receptor ionotropic, kainate (Rattus norvegicus) (UniProt P22756+Q01812+P42260+P42264+Q63273); test: Inhibition of Glutamate, Kainate at 10 µM in the Eurofins-Panlabs radioligand binding assay (Eurofins_assay_232700); conditions: Compound concentration 10.0 uM
[7] = target: Melatonin receptor type 1A (Homo sapiens) (UniProt P48039); test: Inhibition of Melatonin MT1 at 10 µM in the Eurofins-Panlabs radioligand binding assay (Eurofins_assay_251600); parameters: ligand concentration 0.05 nM; conditions: Compound concentration 10.0 uM
[8] = target: Neuropeptide Y receptor type 2 (Homo sapiens) (UniProt P49146); test: Inhibition of Neuropeptide Y Y2 at 10 µM in the Eurofins-Panlabs radioligand binding assay (Eurofins_assay_257110); conditions: Compound concentration 10.0 uM
Neuropeptide Y receptor type 2 (Homo sapiens), sequence (P49146 whole entry): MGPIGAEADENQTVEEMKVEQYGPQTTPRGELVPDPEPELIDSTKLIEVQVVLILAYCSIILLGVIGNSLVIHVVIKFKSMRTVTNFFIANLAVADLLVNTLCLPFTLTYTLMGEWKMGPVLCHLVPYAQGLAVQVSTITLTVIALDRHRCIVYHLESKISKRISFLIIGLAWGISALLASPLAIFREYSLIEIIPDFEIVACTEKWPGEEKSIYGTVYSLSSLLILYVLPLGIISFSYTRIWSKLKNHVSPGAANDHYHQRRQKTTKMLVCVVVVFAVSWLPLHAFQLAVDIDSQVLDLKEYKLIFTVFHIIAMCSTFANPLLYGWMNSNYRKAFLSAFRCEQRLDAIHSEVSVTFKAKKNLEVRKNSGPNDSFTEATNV

Homo sapiens = species: Homo sapiens; test: Inhibition of Nicotinic Acetylcholine at compound concentration of 10.0 uM in the Eurofins-Panlabs radioligand binding assay (Eurofins_assay_258590); type: protein-complex assay; conditions: Compound concentration 10.0 uM
Mus musculus = species: Mus musculus; test: Inhibition of Phorbol Ester at 10 µM in the Eurofins-Panlabs radioligand binding assay (Eurofins_assay_264500); parameters: ligand concentration 3 nM; conditions: Compound concentration 10.0 uM
[9] = target: Platelet-activating factor receptor (Homo sapiens) (UniProt P25105); test: Inhibition of Platelet Activating Factor (PAF) at 10 µM in the Eurofins-Panlabs radioligand binding assay (Eurofins_assay_265010); conditions: Compound concentration 10.0 uM
Platelet-activating factor receptor (Homo sapiens), sequence (P25105 whole entry): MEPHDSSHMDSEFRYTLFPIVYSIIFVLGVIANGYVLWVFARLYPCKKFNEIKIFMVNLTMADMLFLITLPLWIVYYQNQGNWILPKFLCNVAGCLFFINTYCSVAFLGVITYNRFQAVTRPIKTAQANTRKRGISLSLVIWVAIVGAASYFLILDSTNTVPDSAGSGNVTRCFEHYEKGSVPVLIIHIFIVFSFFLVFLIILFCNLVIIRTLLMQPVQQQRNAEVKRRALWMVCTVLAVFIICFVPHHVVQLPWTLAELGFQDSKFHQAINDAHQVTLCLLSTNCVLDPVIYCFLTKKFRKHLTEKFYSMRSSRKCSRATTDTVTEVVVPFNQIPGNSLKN

Oryctolagus cuniculus = species: Oryctolagus cuniculus; test: Inhibition of Purinergic P2X at 10 µM in the Eurofins-Panlabs radioligand binding assay (Eurofins_assay_268700); type: protein assay; conditions: Compound concentration 10.0 uM
[10] = target: Sigma non-opioid intracellular receptor 1 (Homo sapiens) (UniProt Q99720); test: Sigma 1 Eurofins-Panlabs radioligand binding assay; parameters: ligand concentration 8 nM; conditions: Compound concentration 10.0 uM
[11] = target: Macrophage metalloelastase (Homo sapiens, UniProt P39900); test: Biophysical assay (SPR biosensor-based assay)
Macrophage metalloelastase, sequence (P39900 whole entry): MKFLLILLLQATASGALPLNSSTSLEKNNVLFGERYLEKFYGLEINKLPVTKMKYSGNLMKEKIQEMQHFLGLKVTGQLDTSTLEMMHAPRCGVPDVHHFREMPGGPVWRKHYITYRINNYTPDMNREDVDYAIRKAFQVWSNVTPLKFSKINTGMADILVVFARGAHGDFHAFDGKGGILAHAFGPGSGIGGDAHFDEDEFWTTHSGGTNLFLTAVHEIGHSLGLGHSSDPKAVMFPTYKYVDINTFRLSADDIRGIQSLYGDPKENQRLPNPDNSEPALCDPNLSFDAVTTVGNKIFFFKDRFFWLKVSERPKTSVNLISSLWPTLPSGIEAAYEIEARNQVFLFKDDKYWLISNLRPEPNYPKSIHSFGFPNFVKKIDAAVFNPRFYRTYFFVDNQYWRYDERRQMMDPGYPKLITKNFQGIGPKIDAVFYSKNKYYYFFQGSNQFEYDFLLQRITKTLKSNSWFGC

[12] = target: B2 bradykinin receptor (Homo sapiens) (UniProt P30411); test: Bradykinin B2 Eurofins-Panlabs radioligand binding assay; conditions: Compound concentration 10.0 uM
[13] = target: Adenosine receptor A2a (Homo sapiens) (UniProt P29274); conditions: Compound concentration 10.0 uM
[14] = target: Adenosine receptor A3 (Homo sapiens) (UniProt P0DMS8); conditions: Compound concentration 10.0 uM
[15] = target: Beta-1 adrenergic receptor (Homo sapiens) (UniProt P08588); conditions: Compound concentration 10.0 uM
Beta-1 adrenergic receptor (Homo sapiens), sequence (P08588 whole entry, looked up): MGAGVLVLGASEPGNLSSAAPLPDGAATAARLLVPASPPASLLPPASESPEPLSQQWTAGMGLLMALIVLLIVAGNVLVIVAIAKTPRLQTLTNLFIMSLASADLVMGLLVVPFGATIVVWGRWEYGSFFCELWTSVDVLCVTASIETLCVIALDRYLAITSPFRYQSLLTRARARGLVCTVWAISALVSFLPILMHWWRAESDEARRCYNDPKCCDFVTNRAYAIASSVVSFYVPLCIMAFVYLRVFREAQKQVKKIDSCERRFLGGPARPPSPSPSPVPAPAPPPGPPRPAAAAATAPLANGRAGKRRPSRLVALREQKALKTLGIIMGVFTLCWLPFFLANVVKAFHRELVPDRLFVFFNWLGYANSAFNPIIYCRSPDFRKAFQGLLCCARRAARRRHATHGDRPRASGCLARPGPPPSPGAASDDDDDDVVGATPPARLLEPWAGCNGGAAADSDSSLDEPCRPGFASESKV

[16] = target: D(2) dopamine receptor (Homo sapiens) (UniProt P14416); conditions: Compound concentration 10.0 uM
D(2) dopamine receptor (Homo sapiens), sequence (P14416 whole entry): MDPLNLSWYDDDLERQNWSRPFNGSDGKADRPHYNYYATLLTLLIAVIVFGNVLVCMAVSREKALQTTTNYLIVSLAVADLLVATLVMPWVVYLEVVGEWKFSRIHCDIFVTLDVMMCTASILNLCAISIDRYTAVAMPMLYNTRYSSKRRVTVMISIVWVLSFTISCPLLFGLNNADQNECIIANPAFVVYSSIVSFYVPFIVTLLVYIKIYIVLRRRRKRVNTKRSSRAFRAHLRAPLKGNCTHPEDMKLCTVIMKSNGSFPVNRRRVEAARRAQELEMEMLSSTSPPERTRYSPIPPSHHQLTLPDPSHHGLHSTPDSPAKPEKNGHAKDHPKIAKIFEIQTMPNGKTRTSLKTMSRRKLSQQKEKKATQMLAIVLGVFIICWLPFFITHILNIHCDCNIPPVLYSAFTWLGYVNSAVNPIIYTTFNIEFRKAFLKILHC

[17] = target: D(3) dopamine receptor (Homo sapiens) (UniProt P35462); conditions: Compound concentration 10.0 uM
D(3) dopamine receptor (Homo sapiens), sequence (P35462 whole entry): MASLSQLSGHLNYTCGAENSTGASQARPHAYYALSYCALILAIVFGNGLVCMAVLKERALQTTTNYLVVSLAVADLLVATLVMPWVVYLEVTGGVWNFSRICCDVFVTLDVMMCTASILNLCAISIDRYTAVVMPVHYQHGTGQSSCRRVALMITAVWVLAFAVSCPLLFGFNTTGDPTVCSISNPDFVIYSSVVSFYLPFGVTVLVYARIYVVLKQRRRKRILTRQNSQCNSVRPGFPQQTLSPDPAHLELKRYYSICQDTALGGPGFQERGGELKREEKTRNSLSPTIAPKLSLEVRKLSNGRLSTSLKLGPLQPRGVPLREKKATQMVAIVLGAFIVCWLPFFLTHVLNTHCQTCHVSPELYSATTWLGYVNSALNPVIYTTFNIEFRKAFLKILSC

[18] = target: Endothelin-1 receptor (Homo sapiens) (UniProt P25101); conditions: Compound concentration 10.0 uM
[19] = target: Estrogen receptor (Homo sapiens) (UniProt P03372); conditions: Compound concentration 10.0 uM
Estrogen receptor (Homo sapiens), sequence (P03372 whole entry): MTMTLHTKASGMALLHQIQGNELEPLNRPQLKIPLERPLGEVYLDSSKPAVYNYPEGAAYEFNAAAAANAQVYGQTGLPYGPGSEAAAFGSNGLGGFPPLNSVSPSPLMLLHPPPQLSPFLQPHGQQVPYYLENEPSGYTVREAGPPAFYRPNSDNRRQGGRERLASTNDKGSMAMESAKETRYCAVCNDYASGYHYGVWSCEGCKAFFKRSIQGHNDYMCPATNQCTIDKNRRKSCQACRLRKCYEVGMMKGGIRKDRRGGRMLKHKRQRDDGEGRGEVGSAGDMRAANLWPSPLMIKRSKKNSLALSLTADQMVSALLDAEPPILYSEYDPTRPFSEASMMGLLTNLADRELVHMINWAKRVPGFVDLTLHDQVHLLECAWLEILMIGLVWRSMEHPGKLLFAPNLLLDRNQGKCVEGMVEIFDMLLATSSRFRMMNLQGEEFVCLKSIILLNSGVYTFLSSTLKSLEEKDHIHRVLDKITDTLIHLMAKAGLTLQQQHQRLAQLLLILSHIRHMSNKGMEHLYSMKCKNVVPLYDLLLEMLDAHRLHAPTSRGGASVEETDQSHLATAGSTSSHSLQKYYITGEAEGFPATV

[20] = target: T2, GABA-A receptor; anion channel (Rattus norvegicus); conditions: Compound concentration 10.0 uM
[21] = target: Glutamate NMDA receptor (Rattus norvegicus) (UniProt P35439+Q00959+Q00960+Q00961+Q62645+Q8VHN2+Q9R1M7); conditions: Compound concentration 10.0 uM
[22] = target: Histamine H1 receptor (Homo sapiens) (UniProt P35367); conditions: Compound concentration 10.0 uM
[23] = target: Histamine H3 receptor (Homo sapiens) (UniProt Q9Y5N1); conditions: Compound concentration 10.0 uM
Histamine H3 receptor (Homo sapiens), sequence (Q9Y5N1 whole entry): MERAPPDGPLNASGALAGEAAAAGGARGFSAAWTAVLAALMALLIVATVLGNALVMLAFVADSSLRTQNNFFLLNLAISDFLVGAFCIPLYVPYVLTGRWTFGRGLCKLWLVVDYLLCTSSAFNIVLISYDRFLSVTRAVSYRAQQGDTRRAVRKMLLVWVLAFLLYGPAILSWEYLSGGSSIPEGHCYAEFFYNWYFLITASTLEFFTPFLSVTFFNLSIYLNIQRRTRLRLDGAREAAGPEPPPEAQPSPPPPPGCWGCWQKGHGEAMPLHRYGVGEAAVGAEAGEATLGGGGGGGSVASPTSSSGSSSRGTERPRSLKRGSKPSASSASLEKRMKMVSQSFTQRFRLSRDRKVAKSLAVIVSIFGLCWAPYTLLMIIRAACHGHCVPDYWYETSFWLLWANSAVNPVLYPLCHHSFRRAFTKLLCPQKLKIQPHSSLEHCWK

[24] = target: Muscarinic acetylcholine receptor M3 (Homo sapiens) (UniProt P20309); conditions: Compound concentration 10.0 uM
[25] = target: 5-hydroxytryptamine receptor 2B (Homo sapiens) (UniProt P41595); conditions: Compound concentration 10.0 uM
[26] = target: Sodium-dependent dopamine transporter (Homo sapiens) (UniProt Q01959); conditions: Compound concentration 10.0 uM
Sodium-dependent dopamine transporter (Homo sapiens), sequence (Q01959 whole entry): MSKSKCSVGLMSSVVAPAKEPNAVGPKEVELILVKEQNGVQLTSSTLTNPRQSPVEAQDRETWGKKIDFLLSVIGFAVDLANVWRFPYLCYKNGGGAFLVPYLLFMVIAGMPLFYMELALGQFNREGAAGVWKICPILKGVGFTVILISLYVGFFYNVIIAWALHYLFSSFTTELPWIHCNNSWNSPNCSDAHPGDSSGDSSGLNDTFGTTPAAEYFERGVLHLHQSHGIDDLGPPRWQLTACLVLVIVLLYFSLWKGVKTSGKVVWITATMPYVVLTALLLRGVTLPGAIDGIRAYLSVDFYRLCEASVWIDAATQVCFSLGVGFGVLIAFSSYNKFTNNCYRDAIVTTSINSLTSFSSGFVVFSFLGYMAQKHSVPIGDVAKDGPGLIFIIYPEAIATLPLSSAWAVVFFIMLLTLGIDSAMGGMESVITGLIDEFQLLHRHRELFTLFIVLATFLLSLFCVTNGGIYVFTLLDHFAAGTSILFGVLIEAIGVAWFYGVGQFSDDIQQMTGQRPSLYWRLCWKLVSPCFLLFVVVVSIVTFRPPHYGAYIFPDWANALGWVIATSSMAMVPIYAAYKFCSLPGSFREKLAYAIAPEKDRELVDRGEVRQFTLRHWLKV

[27] = target: Sodium-dependent noradrenaline transporter (Homo sapiens) (UniProt P23975); conditions: Compound concentration 10.0 uM
[28] = target: Glucocorticoid receptor (Homo sapiens) (UniProt P04150); conditions: Compound concentration 10.0 uM
Glucocorticoid receptor (Homo sapiens), sequence (P04150 whole entry): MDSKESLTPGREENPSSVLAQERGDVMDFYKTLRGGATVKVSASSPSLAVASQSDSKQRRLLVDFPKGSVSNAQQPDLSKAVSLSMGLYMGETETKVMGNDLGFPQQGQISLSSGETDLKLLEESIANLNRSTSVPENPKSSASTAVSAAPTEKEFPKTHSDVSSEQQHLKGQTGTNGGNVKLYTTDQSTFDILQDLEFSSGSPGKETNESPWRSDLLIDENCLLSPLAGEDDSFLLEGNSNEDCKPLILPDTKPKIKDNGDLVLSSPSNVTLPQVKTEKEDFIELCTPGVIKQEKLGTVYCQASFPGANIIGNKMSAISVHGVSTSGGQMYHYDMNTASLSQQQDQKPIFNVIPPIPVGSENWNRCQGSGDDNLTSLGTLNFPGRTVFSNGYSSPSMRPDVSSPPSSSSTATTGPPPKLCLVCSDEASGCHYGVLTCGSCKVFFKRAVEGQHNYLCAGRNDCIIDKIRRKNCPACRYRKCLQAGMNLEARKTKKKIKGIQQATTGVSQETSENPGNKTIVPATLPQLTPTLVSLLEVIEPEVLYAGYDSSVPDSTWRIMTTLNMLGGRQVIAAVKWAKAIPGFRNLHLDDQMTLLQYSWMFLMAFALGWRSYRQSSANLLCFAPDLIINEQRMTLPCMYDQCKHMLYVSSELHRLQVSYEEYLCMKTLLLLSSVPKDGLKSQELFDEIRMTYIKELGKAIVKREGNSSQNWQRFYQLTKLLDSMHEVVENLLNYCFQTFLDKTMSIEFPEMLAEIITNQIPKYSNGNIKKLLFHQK

SMILES: O=C(O)[C@H]1[C@H](Cn2nnc3ccccc3c2=O)CC[C@@H]1C(=O)c1ccc(OCCC2CCOCC2)cc1 [BAY-7598]
- inhibition (Rattus norvegicus): 12%
- inhibition at 3 h, 10 µM [1]: -9% (not active)
- inhibition [2]: 6%
- inhibition [3]: -2%
- inhibition [4]: 7%
- inhibition [5]: 10%
- inhibition [6]: -4%
- inhibition [7]: 2%
- inhibition [8]: 3%
- inhibition (Homo sapiens): -1%
- inhibition (Mus musculus): 4%
- inhibition [9]: 6%
- inhibition (Oryctolagus cuniculus): -1%
- inhibition [10]: 15%
- Kd [11]: 4 pM (active)
- inhibition [12]: -10%
- inhibition [13]: 7%
- inhibition [14]: 13%
- inhibition [15]: 0%
- inhibition [16]: 2%
- inhibition [17]: 12%
- inhibition [18]: 7%
- inhibition [19]: 2%
- inhibition [20]: -2%
- inhibition [21]: 9%
- inhibition [22]: 1%
- inhibition [23]: -6%
- inhibition [24]: 2%
- inhibition [25]: 4%
- inhibition [26]: 0%
- inhibition [27]: 6%
- inhibition [28]: 12%
